According to patent publication US20260001889A1, “COMPOSITIONS USEFUL FOR MODULATING SPLICING” (Skyhawk Therapeutics, Inc., priority 2022, published 2026):

What was measured:
ATXN3-HiBiT protein = experiment: ATXN3 Total Protein Assay (Kelly-ATXN3-HiBiT luminescence); format: cell-based; conditions: Kelly-ATXN3-HiBiT cells, 48 h after addition of compound
How it was run: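 Kelly cells with homozygous C-terminal HiBiT knock-in on endogenous ATXN3, 2000 per well, dosed 24 h after seeding. HiBiT lytic luminescence read 48 h after compound; sister plate read with CellTiter-Glo for viability; fold change vs DMSO.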

total ATXN3 protein = experiment: ATXN3 Total Protein Assay (Mesoscale Discovery, SK-N-MC cells); format: cell-based, Human; conditions: incubation for 48 hours, MSD assay
Experimental: Example 35: ATXN3 Total Protein Assay
Human neuroblastoma SK-N-MC cells were seeded at 10,000 cells/well in 384 well plates one day prior to compound treatment. The concentrations of compounds were tested at appropriate doses ranging from 30 μM to 0.6 nM. After incubation for 48 hours, the cells were lysed with 25 μL of lysis buffer containing protease inhibitors, and total ATXN3 protein levels were assessed by Mesoscale Discovery (MSD) assay developed with one pair of anti-ATXN3 antibodies. The capture and detect antibodies were raised in mouse and rabbit respectively. Anti-rabbit MSD-ST antibody was used for secondary antibody.
ATXN3 recombinant protein was used for standards. The readouts were captured with 35 μL of MSD read buffer and multi-array 384-well high binding plates.

[1] = test system: ATXN3 transcripts containing exon 4; experiment: ATXN3 Quantitative Splicing Assay (qPCR, E4E5 primers/probe); format: cell-based; conditions: Homo sapiens, SK-N-MC cells, compounds for 24 h
Experimental: Example 34: ATXN3 Quantitative Splicing Assay
Human neuroblastoma SK-N-MC cells were plated in 384-well plates at 20,000 cells/well. Twenty-four hours after plating, cells were treated with compounds for 24 h at appropriate concentrations ranging from 30 μM to 0.6 nM (0.300 DMSO). Treated cells were lysed in 15 μL of lysis buffer, and cDNA was synthesized using the Fast Advanced Cells-to-Ct kit. Two […] of each cDNA was used in qPCR reactions to confirm the exon 4 skipped transcripts of ATXN3. A second set of primers/probe E4E5 was used to detect the transcripts containing exon 4. The third set of primers/probe E8E9 was used to detect total gene level of ATXN3. The qPCR reactions were prepared in 384-well plates in 10 μL volume, using TaqMan™ Fast Advanced Master Mix with primers and probes shown in the table below. Reactions were run in a Quant Studio 6 qPCR instrument with default settings.
The primers and probes are listed below in Table 4.

SMILES | EC50 (ATXN3-HiBiT protein) [nM] | IC50 (total ATXN3 protein) [nM] | IC50 [1] [nM]
C[C@H](N)Cc1oc2c(NCc3cccs3)cc(Cl)nc2c1Cl [Compound 16, 2-[(S)-2-aminopropyl]-3,5-dichloro-7-thenylamino-1-oxa-4-azaindene] | 0.01 to 100 | 0.01 to 100 | 0.01 to 100
C[C@H](N)Cc1oc2c(NCc3cccs3)cc(Cl)nc2c1Br [Compound 17, 2-[(S)-2-aminopropyl]-3-bromo-5-chloro-7-thenylamino-1-oxa-4-azaindene] | 0.01 to 100 | 0.01 to 100 | 0.01 to 100
C[C@H](N)Cc1oc2c(NCc3cccs3)cc(Cl)nc2c1C#N [Compound 18, 2-[(S)-2-aminopropyl]-5-chloro-7-thenylamino-1-oxa-4-aza-3-indenecarbonitrile] | 5000 to 10000 | 5000 to 10000 | 10000 to 40000
N[C@@H](CO)Cc1oc2c(NCc3cccs3)cc(Cl)nc2c1Cl [Compound 21, (R)-2-amino-3-(3,5-dichloro-7-thenylamino-1-oxa-4-aza-2-indenyl)-1-propanol] | 0.01 to 100 | 0.01 to 100 | 0.01 to 100
N[C@@H](CO)Cc1oc2c(NCc3ccco3)cc(Cl)nc2c1Br [Compound 22, (R)-2-amino-3-[3-bromo-5-chloro-7-(furfurylamino)-1-oxa-4-aza-2-indenyl]-1-propanol] | 0.01 to 100 | 0.01 to 100 | 0.01 to 100
N[C@H](Cc1oc2c(NCc3ccco3)cc(Cl)nc2c1Br)CC(F)(F)F [Compound 26, 2-[(R)-2-amino-4,4,4-trifluorobutyl]-3-bromo-5-chloro-7-(furfurylamino)-1-oxa-4-azaindene] | 501 to 5000 | 101 to 500 | 101 to 500
C[C@H](N)Cc1oc2c(NCc3ccco3)cc(Cl)nc2c1Br [Compound 34, 2-[(S)-2-aminopropyl]-3-bromo-5-chloro-7-(furfurylamino)-1-oxa-4-azaindene] | 0.01 to 100 | 0.01 to 100 | 0.01 to 100
C[C@H](N)Cc1oc2c(NCc3cccs3)cc(C#N)nc2c1Br [Compound 35, 2-[(S)-2-aminopropyl]-3-bromo-7-thenylamino-1-oxa-4-aza-5-indenecarbonitrile] | 101 to 500 | 101 to 500 | 101 to 500
C[C@H](N)Cc1oc2c(NCc3ccco3)cc(C#N)nc2c1Br [Compound 36, 2-[(S)-2-aminopropyl]-3-bromo-7-(furfurylamino)-1-oxa-4-aza-5-indenecarbonitrile] | 501 to 5000 | 501 to 5000 | 501 to 5000
COC[C@H](N)Cc1oc2c(NCc3cccs3)cc(Cl)nc2c1Br [Compound 37, 2-[(R)-2-amino-3-methoxypropyl]-3-bromo-5-chloro-7-thenylamino-1-oxa-4-azaindene] | 0.01 to 100 | 0.01 to 100 | 0.01 to 100
C#Cc1cc(NCc2cccs2)c2oc(C[C@H](C)N)c(C)c2n1 [Compound 40, 2-[(S)-2-aminopropyl]-5-ethynyl-3-methyl-7-thenylamino-1-oxa-4-azaindene] | 501 to 5000 | 501 to 5000 | 501 to 5000
C[C@H](F)[C@H](N)Cc1oc2c(NCc3cccs3)cc(Cl)nc2c1Br [Compound 43, 2-[(2R,3S)-2-amino-3-fluorobutyl]-3-bromo-5-chloro-N-(thiophen-2-ylmethyl)furo[3,2-b]pyridin-7-amine] | 0.01 to 100 | 0.01 to 100 | 0.01 to 100
C[C@H](N)Cc1oc2c(NCc3nccs3)cc(Cl)nc2c1Br [Compound 45, 2-[(S)-2-aminopropyl]-3-bromo-5-chloro-7-{[(1,3-thiazol-2-yl)methyl]amino}-1-oxa-4-azaindene] | 0.01 to 100 | 101 to 500 | 101 to 500
COC[C@H](N)Cc1oc2c(NCc3ccccc3)cc(Cl)nc2c1Cl [Compound 51, 2-[(R)-2-amino-3-methoxypropyl]-7-benzylamino-3,5-dichloro-1-oxa-4-azaindene] | 101 to 500 | 101 to 500 | 101 to 500
C[C@H](N)Cc1oc2c(NCc3nccs3)cc(Cl)nc2c1Cl [Compound 57, 2-[(S)-2-aminopropyl]-3,5-dichloro-7-{[(1,3-thiazol-2-yl)methyl]amino}-1-oxa-4-azaindene] | 101 to 500 | 101 to 500 | 101 to 500
Cc1cc(NCc2cccs2)c2oc(C[C@@H](N)CO)c(Br)c2n1 [Compound 59, (R)-2-amino-3-(3-bromo-5-methyl-7-thenylamino-1-oxa-4-aza-2-indenyl)-1-propanol] | 0.01 to 100 | 101 to 500 | 101 to 500

Other lines, results leading:

EC50 (ATXN3-HiBiT protein) [nM] | IC50 (total ATXN3 protein) [nM] | IC50 [1] [nM] | SMILES
0.01 to 100 | 101 to 500 | 101 to 500 | Cc1c(C[C@@H](N)CC2CC2)oc2c(NCc3cccs3)cc(Cl)nc12 [Compound 14, 2-[(S)-2-amino-3-cyclopropylpropyl]-5-chloro-3-methyl-7-thenylamino-1-oxa-4-azaindene]
0.01 to 100 | 0.01 to 100 | 0.01 to 100 | N[C@@H](CO)Cc1oc2c(NCc3cccs3)cc(Cl)nc2c1Br [Compound 20, (R)-2-amino-3-(3-bromo-5-chloro-7-thenylamino-1-oxa-4-aza-2-indenyl)-1-propanol]
0.01 to 100 | 0.01 to 100 | 0.01 to 100 | N[C@@H](CO)Cc1oc2c(NCc3ccco3)cc(Cl)nc2c1Cl [Compound 23, (R)-2-amino-3-[3,5-dichloro-7-(furfurylamino)-1-oxa-4-aza-2-indenyl]-1-propanol]
101 to 500 | 501 to 5000 | 501 to 5000 | N[C@H](Cc1oc2c(NCc3cccs3)cc(Cl)nc2c1Cl)CC(F)(F)F [Compound 25, 2-[(R)-2-amino-4,4,4-trifluorobutyl]-3,5-dichloro-7-thenylamino-1-oxa-4-azaindene]
501 to 5000 | 501 to 5000 | 501 to 5000 | N[C@H](Cc1oc2c(NCc3ccco3)cc(Cl)nc2c1Cl)CC(F)(F)F [Compound 27, 2-[(R)-2-amino-4,4,4-trifluorobutyl]-3,5-dichloro-7-(furfurylamino)-1-oxa-4-azaindene]
101 to 500 | 101 to 500 | 101 to 500 | Cc1c(C[C@@H](N)CCF)oc2c(NCc3cccs3)cc(Cl)nc12 [Compound 31, 2-[(2R)-2-amino-4-fluorobutyl]-5-chloro-3-methyl-N-(thiophen-2-ylmethyl)furo[3,2-b]pyridin-7-amine]
0.01 to 100 | 0.01 to 100 | 0.01 to 100 | Cc1c(C[C@@H](N)[C@H](C)F)oc2c(NCc3cccs3)cc(Cl)nc12 [Compound 41, 2-[(2R,3S)-2-amino-3-fluorobutyl]-5-chloro-3-methyl-7-thenylamino-1-oxa-4-azaindene]
101 to 500 | 101 to 500 | 101 to 500 | C[C@@H](F)[C@H](N)Cc1oc2c(NCc3cccs3)cc(Cl)nc2c1Br [Compound 44, 2-[(2R,3R)-2-amino-3-fluorobutyl]-3-bromo-5-chloro-7-thenylamino-1-oxa-4-azaindene]
101 to 500 | 101 to 500 | 101 to 500 | COC[C@H](N)Cc1oc2c(NCc3ccncc3)cc(Cl)nc2c1Br [Compound 48, (R)-2-(2-amino-3-methoxypropyl)-3-bromo-5-chloro-N-(pyridin-4-ylmethyl)furo[3,2-b]pyridin-7-amine]
0.01 to 100 | 0.01 to 100 | 0.01 to 100 | COC[C@H](N)Cc1oc2c(NCc3cccs3)cc(Cl)nc2c1Cl [Compound 50, 2-[(R)-2-amino-3-methoxypropyl]-3,5-dichloro-7-thenylamino-1-oxa-4-azaindene]
0.01 to 100 | 101 to 500 | 0.01 to 100 | COC[C@H](N)Cc1oc2c(NCc3ccco3)cc(Cl)nc2c1Cl [Compound 52, 2-[(R)-2-amino-3-methoxypropyl]-3,5-dichloro-7-(furfurylamino)-1-oxa-4-azaindene]
101 to 500 | 101 to 500 | 101 to 500 | COC[C@H](N)Cc1oc2c(NCc3nccs3)cc(Cl)nc2c1Cl [Compound 53, 2-[(R)-2-amino-3-methoxypropyl]-3,5-dichloro-7-{[(1,3-thiazol-2-yl)methyl]amino}-1-oxa-4-azaindene]
0.01 to 100 | 0.01 to 100 | 0.01 to 100 | N[C@@H](CF)Cc1oc2c(NCc3cccs3)cc(Cl)nc2c1Br [Compound 58, 2-[(R)-2-amino-3-fluoropropyl]-3-bromo-5-chloro-7-thenylamino-1-oxa-4-azaindene]
101 to 500 | 101 to 500 | 101 to 500 | N#Cc1cc(NCc2cccs2)c2oc(C[C@@H](N)CO)c(Br)c2n1 [Compound 60, 2-[(R)-2-amino-3-hydroxypropyl]-3-bromo-7-thenylamino-1-oxa-4-aza-5-indenecarbonitrile]
